Results from patent US20240425491A1, “HETEROARYL COMPOUNDS USEFUL IN THE TREATMENT OF COGNITIVE DISORDERS” (University College Cardiff Consultants Limited, priority 2021, published 2024).

These molecules were tested against T1, human recombinant GABAAR containing α5β3γ2 subunits (benzodiazepine site) (Homo sapiens, UniProt P18507+P31644) (assay: In vitro radioligand binding assay (α5-GABAAR Ki)). Details: not given.
T1 construct: expressed in transfected cells; host or cells: mouse L(tk−) cells, dexamethasone-inducible vector pMSGneo
T1 sequence (P31644 32-462): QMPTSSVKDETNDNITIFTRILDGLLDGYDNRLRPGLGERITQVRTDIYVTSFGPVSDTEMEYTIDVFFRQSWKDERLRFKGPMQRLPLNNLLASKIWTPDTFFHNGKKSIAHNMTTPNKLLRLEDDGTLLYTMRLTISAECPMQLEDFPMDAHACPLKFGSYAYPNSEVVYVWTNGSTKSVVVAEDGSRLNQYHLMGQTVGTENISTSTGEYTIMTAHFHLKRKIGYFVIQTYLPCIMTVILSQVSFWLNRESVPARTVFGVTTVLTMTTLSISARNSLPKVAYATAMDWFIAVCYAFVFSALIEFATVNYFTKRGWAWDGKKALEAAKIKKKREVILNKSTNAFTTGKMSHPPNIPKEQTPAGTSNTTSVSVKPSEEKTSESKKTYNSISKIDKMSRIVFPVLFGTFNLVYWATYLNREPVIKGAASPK
T1 sequence (P28472 26-473 partner): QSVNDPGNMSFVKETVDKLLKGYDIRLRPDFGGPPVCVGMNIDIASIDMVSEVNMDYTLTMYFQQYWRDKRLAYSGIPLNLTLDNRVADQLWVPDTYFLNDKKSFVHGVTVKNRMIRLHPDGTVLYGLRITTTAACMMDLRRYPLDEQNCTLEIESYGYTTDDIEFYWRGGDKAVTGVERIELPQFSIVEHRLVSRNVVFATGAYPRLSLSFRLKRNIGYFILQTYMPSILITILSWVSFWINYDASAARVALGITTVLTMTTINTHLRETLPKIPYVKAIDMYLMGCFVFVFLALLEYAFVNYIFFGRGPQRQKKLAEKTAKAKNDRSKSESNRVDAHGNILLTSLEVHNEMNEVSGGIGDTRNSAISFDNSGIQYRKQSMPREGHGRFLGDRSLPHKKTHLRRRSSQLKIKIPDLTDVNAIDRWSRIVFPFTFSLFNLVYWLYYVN
T1 sequence (P18507 40-475): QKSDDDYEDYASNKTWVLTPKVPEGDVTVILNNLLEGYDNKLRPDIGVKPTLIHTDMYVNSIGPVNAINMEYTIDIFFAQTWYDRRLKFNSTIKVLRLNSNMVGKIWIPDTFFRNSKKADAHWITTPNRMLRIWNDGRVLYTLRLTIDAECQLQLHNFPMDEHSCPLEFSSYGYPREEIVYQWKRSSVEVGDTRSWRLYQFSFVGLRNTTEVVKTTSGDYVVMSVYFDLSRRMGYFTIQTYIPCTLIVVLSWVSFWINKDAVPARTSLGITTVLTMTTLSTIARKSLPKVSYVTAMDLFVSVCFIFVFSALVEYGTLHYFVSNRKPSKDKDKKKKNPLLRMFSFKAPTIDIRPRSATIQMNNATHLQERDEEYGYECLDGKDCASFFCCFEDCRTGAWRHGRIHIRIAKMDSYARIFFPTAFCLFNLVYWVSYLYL
From the text: Mouse L(tk^−) cells stably expressing human α1β3γ2, α2β3γ2, α3β3γ2, α5β3γ2 GABAARs generated by transfection of the individual subunits in the dexamethasone-inducible expression vector pMSGneo in mouse L(tk^−) cells (Hadingham et al., 1993, Mol. Pharmacol. 43:970-975 and 1993, Mol. Pharmacol. 44:1211-1218) were used for binding and functional assays. For certain compounds, HEK293 cells stable expressing the human α1β3γ2L, α2β3γ2L, α3β3γ2L and α5β3γ2L GABAA receptors were used to evaluate their functional effects in a SyncroPatch electrophysiology assay.
L(tk^−) cells stably expressing human α1β3γ2, α2β3γ2, α3β3γ2, α5β3γ2 GABAARs were maintained in DMEM F12 medium supplemented with 10% Foetal Bovine Serum, 1% Penicillin/Streptomycin and 1 mg/mL Geneticin G418 in an incubator at 37° C. with a humidified atmosphere with 5% CO2.
The affinity (Ki) of compounds for the benzodiazepine site of human recombinant GABAARs was measured by their ability to inhibit the binding of the selective benzodiazepine antagonist [^3H] Ro15-1788 ([^3H] flumazenil).
L(tk^−) cells expressing human recombinant GABAAR containing α1β3γ2, α2β3γ2, α3β3γ2, α5β3γ2 subunits were harvested and membranes were prepared for each receptor combination in phosphate buffer (K2PO4 10 mM, pH 7.0) (Hadingham et al. (1992) Proc. Natl. Acad. Sci. USA; 89 (14): 6378-82). Protein concentration, receptor expression and the Kd of [^3H] Ro15-1788 were determined before Ki values of compounds were evaluated. For Kd evaluation, saturation binding curves were obtained by incubating membrane with various concentrations of [^3H] Ro15-1788 (82.5 Ci/mM), with nonspecific binding measured in the presence of 1 μM TP003.
For Ki evaluation, cell membranes were incubated with 4 nM [^3H] Ro15-1788 along with a range of concentrations of test compound. Nonspecific binding was determined using 1 μM TP003. All incubations were performed for 1 hour at 4° C. in assay buffer. The total assay volume was 0.5 mL, containing 100 μg membrane protein/well α1β3γ2, α2β3γ2, α3β3γ2 and 50 μg membrane protein/well for α53γ2. Incubations were terminated by filtration and washing with ice cold Tris-HCl buffer (50 mM, pH=7.4) over Whatman GF/B filters and the radioactivity of the filters was measured using liquid scintillation counting.
The % inhibition of [^3H] Ro15-1788 binding was plotted as a function of compound concentration and the IC50 calculated. From the IC50, the affinity (Ki) was calculated using the method of Cheng and Prusoff using the Kd values obtained for [^3H] Ro15-1788.
Work on `COc1cc2c(-c3ccc(NC(=O)c4c(-c5ccccc5)noc4C)c(OC)n3)cn(C)c2cn1` [Example 109, N-(2-Methoxy-6-(5-methoxy-1-methyl-1H-pyrrolo[2,3-c]pyridin-3-yl)pyridin-3-yl)-5-methyl-3-phenylisoxazole-4-carboxamide] yielded a Ki of 47.2 nM.

Same assay, conditions: inhibition of [3H]Ro15-1788 binding, membranes of L(tk−) cells expressing human α5β3γ2; read-out: α5-GABAAR Ki
With `COc1nc(-c2cccc([N+](=O)[O-])c2)ccc1NC(=O)c1c(-c2ccccc2)noc1C` [Example 8, N-[2-Methoxy-6-(3-nitrophenyl)-3-pyridyl]-5-methyl-3-phenyl-isoxazole-4-carboxamide] the Ki was 104 nM. With `COc1ncc(-c2ccc(NC(=O)c3c(-c4ccccc4)noc3C)c(OC)n2)s1` [Example 10, N-[2-Methoxy-6-(2-methoxythiazol-5-yl)-3-pyridyl]-5-methyl-3-phenyl-isoxazole-4-carboxamide] the Ki was 72.9 nM. With `COc1nc(-c2cccc(N(C)C)c2)ccc1NC(=O)c1c(-c2ccccc2)noc1C` [Example 16, N-[6-[3-(Dimethylamino)phenyl]-2-methoxy-3-pyridyl]-5-methyl-3-phenyl-isoxazole-4-carboxamide] the Ki was 403 nM. In the case of `COc1nc(-c2ccncc2C)ccc1NC(=O)c1c(-c2ccccc2)noc1C` [Example 24, N-[2-Methoxy-6-(3-methyl-4-pyridyl)-3-pyridyl]-5-methyl-3-phenyl-isoxazole-4-carboxamide], the Ki is reported as 162 nM. `COc1nc(-c2c(C)n[nH]c2C)ccc1NC(=O)c1c(-c2ccccc2)noc1C` [Example 25, N-[6-(3,5-Dimethyl-1H-pyrazol-4-yl)-2-methoxy-3-pyridyl]-5-methyl-3-phenyl-isoxazole-4-carboxamide] showed a Ki of 34.2 nM. Molecule `COc1cc(-c2c(C)n[nH]c2C)cnc1NC(=O)c1c(-c2ccccc2)noc1C` [Example 31, N-[5-(3,5-Dimethyl-1H-pyrazol-4-yl)-3-methoxy-2-pyridyl]-5-methyl-3-phenyl-isoxazole-4-carboxamide] has a Ki of 69.1 nM. For `COc1nc(-c2cc(OC)c3cn[nH]c3c2)ccc1NC(=O)c1c(-c2ccccc2)noc1C` [Example 32, N-[2-Methoxy-6-(4-methoxy-1H-indazol-6-yl)-3-pyridyl]-5-methyl-3-phenyl-isoxazole-4-carboxamide], the Ki was 110 nM. With `COc1nc(-c2ccc3cn[nH]c3c2)ccc1NC(=O)c1c(-c2ccccc2)noc1C` [Example 34, N-[6-(1H-Indazol-6-yl)-2-methoxy-3-pyridyl]-5-methyl-3-phenyl-isoxazole-4-carboxamide] the Ki was 115 nM. Molecule `COc1nc(-c2ccc3c(N)n[nH]c3c2)ccc1NC(=O)c1c(-c2ccccc2)noc1C` [Example 35, N-[6-(3-Amino-1H-indazol-6-yl)-2-methoxy-3-pyridyl]-5-methyl-3-phenyl-isoxazole-4-carboxamide] has a Ki of 27.2 nM. Work on `COc1nc(-c2cnc(Cl)nc2)ccc1NC(=O)c1c(-c2ccccc2)noc1C` [Example 36, N-[6-(2-Chloropyrimidin-5-yl)-2-methoxy-3-pyridyl]-5-methyl-3-phenyl-isoxazole-4-carboxamide] yielded a Ki of 2 nM. `COc1nc(-c2nccn3ccnc23)ccc1NC(=O)c1c(-c2ccccc2)noc1C` [Example 38, N-(6-Imidazo[1,2-a]pyrazin-8-yl-2-methoxy-3-pyridyl)-5-methyl-3-phenyl-isoxazole-4-carboxamide] gave a Ki of 57.6 nM. `COc1nc(-c2cnc(N)c(OC)n2)ccc1NC(=O)c1c(-c2ccccc2)noc1C` [Example 39, N-[6-(5-Amino-6-methoxy-pyrazin-2-yl)-2-methoxy-3-pyridyl]-5-methyl-3-phenyl-isoxazole-4-carboxamide] showed a Ki of 32.3 nM. `COc1nc(-c2ncn(C)n2)ccc1NC(=O)c1c(-c2ccccc2)noc1C` [Example 51, N-[2-Methoxy-6-(1-methyl-1,2,4-triazol-3-yl)-3-pyridyl]-5-methyl-3-phenyl-isoxazole-4-carboxamide] showed a Ki of 20.5 nM. `COc1nc(-c2ncccn2)ccc1NC(=O)c1c(-c2ccccc2)noc1C` [Example 63, N-(2-Methoxy-6-pyrimidin-2-yl-3-pyridyl)-5-methyl-3-phenyl-isoxazole-4-carboxamide] gave a Ki of 32.6 nM. `COc1nc(-c2cccnn2)ccc1NC(=O)c1c(-c2ccccc2)noc1C` [Example 64, N-(2-Methoxy-6-pyridazin-3-yl-3-pyridyl)-5-methyl-3-phenyl-isoxazole-4-carboxamide] gave a Ki of 21.9 nM. `COc1nc(-c2ccncn2)ccc1NC(=O)c1c(-c2ccccc2)noc1C` [Example 65, N-(2-Methoxy-6-pyrimidin-4-yl-3-pyridyl)-5-methyl-3-phenyl-isoxazole-4-carboxamide] gave a Ki of 49 nM. With `COc1nc(-c2nccs2)ccc1NC(=O)c1c(-c2ccccc2)noc1C` [Example 66, N-(2-Methoxy-6-thiazol-2-yl-3-pyridyl)-5-methyl-3-phenyl-isoxazole-4-carboxamide] the Ki was 236 nM. `COc1nc(-c2ccsn2)ccc1NC(=O)c1c(-c2ccccc2)noc1C` [Example 69, N-(6-Isothiazol-3-yl-2-methoxy-3-pyridyl)-5-methyl-3-phenyl-isoxazole-4-carboxamide] gave a Ki of 232 nM. For `COc1nc(-c2ccccn2)ccc1NC(=O)c1c(-c2ccccc2)noc1C` [Example 73, N-[2-Methoxy-6-(2-pyridyl)-3-pyridyl]-5-methyl-3-phenyl-isoxazole-4-carboxamide], the Ki was 154 nM. `COc1nc(-c2ccc(SC(F)(F)F)nc2)ccc1NC(=O)c1c(-c2ccccc2)noc1C` [Example 76, N-(6-Methoxy-6′-((trifluoromethyl)thio)-[2,3′-bipyridin]-5-yl)-5-methyl-3-phenyl-isoxazole-4-carboxamide] showed a Ki of 297 nM. For `COc1nc(-c2ccc(OC(F)F)nc2)ccc1NC(=O)c1c(-c2ccccc2)noc1C` [Example 88, N-(6′-(Difluoromethoxy)-6-methoxy-[2,3′-bipyridin]-5-yl)-5-methyl-3-phenyl-isoxazole-4-carboxamide], the Ki was 26.6 nM. With `COc1nc(-c2cnc(N(C)C)c(Cl)c2)ccc1NC(=O)c1c(-c2ccccc2)noc1C` [Example 98, N-(5′-Chloro-6′-(dimethylamino)-6-methoxy-[2,3′-bipyridin]-5-yl)-5-methyl-3-phenylisoxazole-4-carboxamide] the Ki was 664 nM. `COc1nc(-c2nnn(C)c2C)ccc1NC(=O)c1c(-c2ccccc2)noc1C` [Example 101, N-(6-(1,5-Dimethyl-1H-1,2,3-triazol-4-yl)-2-methoxypyridin-3-yl)-5-methyl-3-phenylisoxazole-4-carboxamide] gave a Ki of 45.1 nM. `COc1nc(-c2c[nH]c3ncccc23)ccc1NC(=O)c1c(-c2ccccc2)noc1C` [Example 105, N-(2-Methoxy-6-(1H-pyrrolo[2,3-b]pyridin-3-yl)pyridin-3-yl)-5-methyl-3-phenylisoxazole-4-carboxamide] was tested, and the Ki was 113 nM. `COc1nc(-c2cnn3cccnc23)ccc1NC(=O)c1c(-c2ccccc2)noc1C` [Example 112, N-(2-Methoxy-6-(pyrazolo[1,5-a]pyrimidin-3-yl)pyridin-3-yl)-5-methyl-3-phenylisoxazole-4-carboxamide] showed a Ki of 80.6 nM. Molecule `COc1nc(-c2cnccn2)ccc1NC(=O)c1c(-c2ccccc2)noc1C` [Example 113, N-(2-Methoxy-6-(pyrazin-2-yl)pyridin-3-yl)-5-methyl-3-phenylisoxazole-4-carboxamide] has a Ki of 41.7 nM. With `COc1nc(-c2cnc3c(c2)CC(=O)N3)ccc1NC(=O)c1c(-c2ccccc2)noc1C` [Example 114, N-(2-Methoxy-6-(2-oxo-2,3-dihydro-1H-pyrrolo[2,3-b]pyridin-5-yl)pyridin-3-yl)-5-methyl-3-phenylisoxazole-4-carboxamide] the Ki was 6.3 nM. `COc1nc(-c2cn(-c3nccs3)nc2C)ccc1NC(=O)c1c(-c2ccccc2)noc1C` [Example 115, N-(2-Methoxy-6-(3-methyl-1-(thiazol-2-yl)-1H-pyrazol-4-yl)pyridin-3-yl)-5-methyl-3-phenylisoxazole-4-carboxamide] gave a Ki of 99.8 nM. Work on `COc1nc(-c2c[nH]c(=O)c(F)c2)ccc1NC(=O)c1c(-c2ccccc2)noc1C` [Example 116, N-(5′-Fluoro-6-methoxy-6′-oxo-1′,6′-dihydro-[2,3′-bipyridin]-5-yl)-5-methyl-3-phenylisoxazole-4-carboxamide] yielded a Ki of 2.9 nM.
